ChEMBL document CHEMBL1781912, “In search of patterns over physicochemical properties and pharmacological activities for a set of [MCl₂(thiosemicarbazone)] complexes (M=Pt/Pd): support for multiple mechanisms of antichagasic action excluding DNA-bonding in vivo?” (Eur J Med Chem, 2011)

System: Trypanosoma cruzi
Assay: Antichagasic activity against Trypanosoma cruzi Tulahuen 2
Type: functional, organism-based

| IC50 [µM] | SMILES |
| --- | --- |
| 5 | CNC(=S)N/N=C/c1ccc([N+](=O)[O-])o1 |
| 4.1 | CCNC(=S)N/N=C/C=C/c1ccc([N+](=O)[O-])o1 |
| 3.6 | O=[N+]([O-])c1ccc(/C=C/C=N/NC(=S)Nc2ccccc2)o1 |
| 4.9 | CCNC(=S)N/N=C/c1ccc([N+](=O)[O-])o1 |
| 6.1 | CC1CS(=O)(=O)CCN1/N=C/c1ccc([N+](=O)[O-])o1 (centres undefined) [NIFURTIMOX] |
| 4.5 | CNC(=S)N/N=C/C=C/c1ccc([N+](=O)[O-])o1 |
| 3.5 | NC(=S)N/N=C\C=C\c1ccc([N+](=O)[O-])o1 |
| > 25 | O=[N+]([O-])c1ccc(/C=N/NC(=S)Nc2ccccc2)o1 |
| 2.7 | NC(=S)N/N=C/c1ccc([N+](=O)[O-])o1 |
